Assay results as given in PMC6627486, “Ipomoeassin F Binds Sec61α to Inhibit Protein Translocation” (Journal of the American Chemical Society, 2019).

What was measured:
[1] = tested on: secNLuc-ATZ secretion in U2-OS cells; test: U2-OS secNLuc-ATZ secretion assay; assay type: cell-based; conditions: Homo sapiens, U2OS, 24 h, read-out: secNLuc-ATZ secretion inhibition EC50
Experimental: The secNLuc-ATZ assay has been described elsewhere.18 Briefly, U2-OS cells stably expressing secNLuc-ATZ were cultured in McCoy’s 5A supplemented with 10% bovine growth serum (Hyclone SH30540.03), 50 units/mL penicillin, and 50 µg/mL streptomycin and plated into 1536-well black, clear-bottom treatment plates (Aurora Microplates #ABI121000A) at 1200 cells/well in 5 µL volume using a Multidrop Combi dispenser (ThermoFisher). Cells were returned to 37 °C for 1 h to adhere and compound or vehicle control was added to wells using a 1536-well pin-tool transfer device (Wako Automation, San Diego). Cells were incubated for 24 h and secNLuc-ATZ-containing media was transferred using an ATS-100 acoustic dispenser (EDC Biosystems, Fremont, CA) from the treatment plate to a white, solid-bottom 1536-well recipient plate (Greiner Bio One #789175-F) containing 3 µL/well of 1X PBS. […]
Cells were incubated at 37 °C for 24 h and secreted luciferase was detected by adding 1 µL of coelenterazine substrate to each well using a BioRAPTR FRD workstation. […]
Luminescence was measured using a ViewLux microplate imager equipped with clear filters.
For cell viability assays, cells were cultured, plated, and treated with test compounds as outlined for the secretion assays. 48 h after treatment, viability was assessed using a CellTiter-Glo assay by adding 3

[2] = tested on: MDA-MB-231, MCF7, MCF-10A; test: Cytotoxicity relative to ipomoeassin F across the cell lines of Table 1; assay type: cell-based, human; conditions: depending on the cell type (Table 1)
Experimental: Two human breast cancer cell lines (MDA-MB-231 and MCF7) and one human breast non-tumorigenic epithelial cell line (MCF-10A) were maintained in a DMEM high glucose culture medium supplemented with 10% fetal bovine serum (FBS) and 2 mM L-glutamine. The cells were grown in a humidified atmosphere of 5% CO2 and 95% air at 37 °C . The culture medi um w as changed every 2–4 days depending on cell density. Cell cultures were passaged once a week using 0.125% trypsin-EDTA to detach the cells from culture flasks/dishes.
The human colorectal cancer cell line HCT116 was maintained in McCoy’s 5A (modified) medium supplemented with 10% fetal bovine serum (FBS). […]
Viable cells were counted with a hemocytometer immediately before each experiment. […] Absorbance of formazan was detected by a microplate reader (BioTek Synergy H1) at 570 nm with 650 nm as the reference wavelength. The percentage of viability compared to the negative control (DMSO-treated cells) was determined . […]
MDA-MB-231, MCF-10A and HCT116. Viable cells were counted with a hemocytometer immediately before each experiment . […] Emission of each well at 620 nm was detected by a microplate reader (BioTek Synergy H1) at excitation 580 nm. […] Cells were treated for 96 h, then viability measured with AlamarBlue, detected using the conditions described but with a BMG Fluostar Optima Microplate Reader. […]

Compound	EC50 [1]	decrease in potency versus ipomoeassin F [2]
C/C=C(\C)C(=O)O[C@@H]1[C@@H](O)[C@@H]2O[C@H]3[C@H](O[C@@H](CCCCC)CCCCCCC(=O)CCC(=O)OC[C@@H](O2)[C@H]1OC(=O)/C=C/c1ccccc1)O[C@H](C)[C@H](OC(C)=O)[C@@H]3O [ipomoeassin F]	~5 nM	
C/C=C(\C)C(=O)O[C@H]1[C@H](OC(=O)/C=C/c2ccc(OCc3cn(CCOCCOCCOCCNC(=O)CCCC[C@@H]4SC[C@@H]5NC(=O)N[C@@H]54)nn3)cc2)[C@@H](O)[C@@H]2O[C@H]3[C@H](O[C@@H](CCCCC)CCCCCCC(=O)CCC(=O)OC[C@H]1O2)O[C@H](C)[C@H](OC(C)=O)[C@@H]3O [compound 5]		~5 fold
